By melting point is commonly meant the temperature, or range, at which the solid turns liquid. One may read the IC50 as the concentration at which inhibition is half-maximal.

Melting point and IC50 data for 26 molecules are collected here from patent US8735414B2 (priority 2009, dated 2014).

For data set [1], the system named is bicistronic HCV replicon (replicon RNA, GenBank Accession No. AJ242654). Description: HCV Replicon Assay. As to conditions: Hepatitis C virus, 72 h, read-out: Replicon IC50. The data set is classed as cell-based. For orientation: Replicon systems follow genome replication, usually without infectious particles.

Structures are written as SMILES.

The molecule `N#Cc1c(-c2ccc(S(=O)(=O)NC(CF)CF)cn2)n(C2CC2)c2cc(OC(F)F)ccc12` [compound 42, 6-[3-cyano-1-cyclopropyl-6-(difluoromethoxy)-1H-indol-2-yl]-N-(1,3-difluoropropan-2-yl)pyridine-3-sulfonamide] had a melting point of 219 to 220 °C. Further, the IC50 in data set [1] was under 500 nM.
For the molecule `CCc1ccc2c(c1)c(C#N)c(-c1ccc(S(=O)(=O)N[C@@H](C)C(F)(F)F)cn1)n2C1CCC1` [compound 339, 6-(3-cyano-1-cyclobutyl-5-ethyl-1H-indol-2-yl)-N-[(2S)-1,1,1-trifluoropropan-2-yl]pyridine-3-sulfonamide], the melting point was in the range of 168 to 169 °C. In addition, in data set [1], the IC50 is under 500 nM.
In the case of `CCn1c(-c2ncc(S(=O)(=O)NC(C)C)cn2)c(C#N)c2cc(OC(F)F)ccc21` [compound 242, 2-[3-cyano-5-(difluoromethoxy)-1-ethyl-1H-indol-2-yl]-N-(propan-2-yl)pyrimidine-5-sulfonamide], the melting point is 180 to 185 °C. Also, the 50% inhibitory concentration (IC50) in data set [1] is 500 to 2000 nM.
Regarding `CC(C)(CF)NS(=O)(=O)c1ccc(-c2c(C#N)c3ccc(OC(F)F)cc3n2C2CCCC2)nc1` [compound 67, 6-[3-cyano-1-cyclopentyl-6-(difluoromethoxy)-1H-indol-2-yl]-N-(1-fluoro-2-methylpropan-2-yl)pyridine-3-sulfonamide], the melting point fell in the range of 224 to 229 °C. For the same molecule, the 50% inhibitory concentration (IC50) in data set [1] was under 500 nM.
The like results for `C[C@H](NS(=O)(=O)c1cnc(-c2c(C#N)c3cc(Cl)ccc3n2C2CCCCC2)nc1)C(F)(F)F` [compound 464, 2-(5-chloro-3-cyano-1-cyclohexyl-1H-indol-2-yl)-N-[(2S)-1,1,1-trifluoropropan-2-yl]pyrimidine-5-sulfonamide] were, in that order, 253 to 255 °C and 500 to 2000 nM.
Molecule `Cc1ccc2c(c1)c(C#N)c(-c1ccc(S(=O)(=O)NC3(C(F)(F)F)CC3)cn1)n2C1CCC1` [compound 328, 6-(3-cyano-1-cyclobutyl-5-methyl-1H-indol-2-yl)-N-[1-(trifluoromethyl)cyclopropyl]pyridine-3-sulfonamide] registered a melting point of 193 to 199 °C. Moreover, the IC50 in data set [1] was under 500 nM.
Consider `CCc1cc2c(cc1F)c(C#N)c(-c1ccc(S(=O)(=O)N[C@@H](C)C(F)(F)F)cn1)n2-c1cnccn1` [compound 929, 6-[3-cyano-6-ethyl-5-fluoro-1-(pyrazin-2-yl)-1H-indol-2-yl]-N-[(2S)-1,1,1-trifluoropropan-2-yl]pyridine-3-sulfonamide], for which the melting point is 225 to 229 °C. Further, in data set [1], the concentration for half-maximal inhibition (IC50) is under 500 nM.
The like results for `Cc1ccc2c(c1)c(C#N)c(-c1ccc(S(=O)(=O)NC(C)(C)C(F)(F)F)cn1)n2C1CCCC1` [compound 607, 6-(3-cyano-1-cyclopentyl-5-methyl-1H-indol-2-yl)-N-(1,1,1-trifluoro-2-methylpropan-2-yl)pyridine-3-sulfonamide] were, in that order, 176 to 181 °C and under 500 nM.
For `C[C@H](NS(=O)(=O)c1ccc(-c2c(C(N)=O)c3cc(F)c(Cl)cc3n2C2CCC2)nc1)C(F)(F)F` [compound 736, 6-chloro-1-cyclobutyl-5-fluoro-2-(5-{[(2S)-1,1,1-trifluoropropan-2-yl]sulfamoyl}pyridin-2-yl)-1H-indole-3-carboxamide], the melting point lay within 241 to 243 °C. Also, the half-inhibitory concentration (IC50) in data set [1] was under 500 nM.
In turn, `CC(C)(NS(=O)(=O)c1ccc(-c2c(C#N)c3ccc(OC(F)F)cc3n2-c2ccccc2)nc1)C(F)(F)F` [compound 612, 6-[3-cyano-6-(difluoromethoxy)-1-phenyl-1H-indol-2-yl]-N-(1,1,1-trifluoro-2-methylpropan-2-yl)pyridine-3-sulfonamide] registered a melting point of 218 to 220 °C. For the same molecule, the concentration for half-maximal inhibition (IC50) in data set [1] is under 500 nM.
In turn, `CCc1cc2c(cc1F)c(C(N)=O)c(-c1ccc(S(=O)(=O)NC3(C(F)(F)F)CC3)cn1)n2C1CCCC1` [compound 872, 1-cyclopentyl-6-ethyl-5-fluoro-2-(5-{[1-(trifluoromethyl)cyclopropyl]sulfamoyl}pyridin-2-yl)-1H-indole-3-carboxamide] came in with a melting point of 196 to 197 °C. The IC50 in data set [1] is under 500 nM.
Take `Cc1ccc2c(c1)c(C#N)c(-c1ccc(S(=O)(=O)NC(CF)CF)cn1)n2CC1CC1` [compound 373, 6-[3-cyano-1-(cyclopropylmethyl)-5-methyl-1H-indol-2-yl]-N-(1,3-difluoropropan-2-yl)pyridine-3-sulfonamide]: the melting point lay in the range of 186 to 188 °C. Also, the concentration for half-maximal inhibition (IC50) in data set [1] is under 500 nM.
For the molecule `COc1ccc2c(C#N)c(-c3ncc(S(=O)(=O)N[C@@H](C)C(F)(F)F)cn3)n(C3CCCC3)c2c1` [compound 406, 2-(3-cyano-1-cyclopentyl-6-methoxy-1H-indol-2-yl)-N-[(2S)-1,1,1-trifluoropropan-2-yl]pyrimidine-5-sulfonamide], the melting point lay in the range of 211 to 212 °C. Further, the IC50 in data set [1] is under 500 nM.
As for `N#Cc1c(-c2ncc(S(=O)(=O)NC(CF)CF)cn2)n(C2CCC2)c2cc(Cl)c(F)cc12` [compound 149, 2-(6-chloro-3-cyano-1-cyclobutyl-5-fluoro-1H-indol-2-yl)-N-(1,3-difluoropropan-2-yl)pyrimidine-5-sulfonamide], the melting point was > 245 °C (dec.). Further, the concentration for half-maximal inhibition (IC50) in data set [1] was under 500 nM.
Consider `C[C@H](NS(=O)(=O)c1ccc(-c2c(C#N)c3ccc(OC(F)(F)F)cc3n2C2CCC2)nc1)C(F)(F)F` [compound 370, 6-[3-cyano-1-cyclobutyl-6-(trifluoromethoxy)-1H-indol-2-yl]-N-[(2S)-1,1,1-trifluoropropan-2-yl]pyridine-3-sulfonamide], for which the melting point lay in the range of 165 to 175 °C. Besides, the concentration for half-maximal inhibition (IC50) in data set [1] is under 500 nM.
Consider `C[C@H](NS(=O)(=O)c1ccc(-c2c(C#N)c3cc(F)c(C4CC4)cc3n2-c2ccc(F)cn2)nc1)C(F)(F)F` [compound 818, 6-[3-cyano-6-cyclopropyl-5-fluoro-1-(5-fluoropyridin-2-yl)-1H-indol-2-yl]-N-[(2S)-1,1,1-trifluoropropan-2-yl]pyridine-3-sulfonamide], for which the melting point lay within 240 to 242 °C. In addition, in data set [1], the IC50 is under 500 nM.
The like results for `Cc1ccc2c(c1)c(C#N)c(-c1ccc(S(=O)(=O)N[C@@H](C)C3CC3)cn1)n2C1CCCCC1` [compound 606, 6-(3-cyano-1-cyclohexyl-5-methyl-1H-indol-2-yl)-N-[(1S)-1-cyclopropylethyl]pyridine-3-sulfonamide] were, in that order, 169 to 174 °C and under 500 nM.
Taken in the same sequence, the figures for `C[C@H](NS(=O)(=O)c1ccc(-c2c(C#N)c3cc(C(F)F)ccc3n2C2CCCC2)nc1)C(F)(F)F` [compound 537, 6-[3-cyano-1-cyclopentyl-5-(difluoromethyl)-1H-indol-2-yl]-N-[(2S)-1,1,1-trifluoropropan-2-yl]pyridine-3-sulfonamide] were 187 to 188 °C and under 500 nM.
As to `Cc1cc2c(cc1F)c(C(N)=O)c(-c1ccc(S(=O)(=O)N[C@@H](C)C(F)(F)F)cn1)n2-c1cccnn1` [compound 912, 5-fluoro-6-methyl-1-(pyridazin-3-yl)-2-(5-{[(2S)-1,1,1-trifluoropropan-2-yl]sulfamoyl}pyridin-2-yl)-1H-indole-3-carboxamide], the melting point was 176 to 181 °C. The 50% inhibitory concentration (IC50) in data set [1] lay in the range of 2000 to 5000 nM.
Take `CC(C)NS(=O)(=O)c1cnc(-c2c(C#N)c3ccc(C4CC4)cc3n2CC2CC2)nc1` [compound 124, 2-[3-cyano-6-cyclopropyl-1-(cyclopropylmethyl)-1H-indol-2-yl]-N-(propan-2-yl)pyrimidine-5-sulfonamide]: the melting point was 169 to 174 °C. For the same molecule, the concentration for half-maximal inhibition (IC50) in data set [1] is under 500 nM.
With `CC(C)NS(=O)(=O)c1ccc(-c2c(C#N)c3ccc(OC4CCC4)cc3n2C2CCC2)cn1` [compound 4, 5-[3-cyano-1-cyclobutyl-6-(cyclobutyloxy)-1H-indol-2-yl]-N-(propan-2-yl)pyridine-2-sulfonamide], the melting point was in the range of 178 to 180 °C. In addition, the half-maximal inhibitory concentration (IC50) in data set [1] was in the range of 2000 to 5000 nM.
With `C[C@H](NS(=O)(=O)c1ccc(-c2c(C#N)c3ccc(Cl)cc3n2C2CCC2)nc1)C(F)(F)F` [compound 375, 6-(6-chloro-3-cyano-1-cyclobutyl-1H-indol-2-yl)-N-[(2S)-1,1,1-trifluoropropan-2-yl]pyridine-3-sulfonamide], the melting point was 198 to 204 °C. For the same molecule, the IC50 in data set [1] is under 500 nM.
In turn, `C[C@H](NS(=O)(=O)c1cnc(-c2c(C#N)c3cc(F)ccc3n2C2CCCC2)nc1)C(F)(F)F` [compound 547, 2-(3-cyano-1-cyclopentyl-5-fluoro-1H-indol-2-yl)-N-[(2S)-1,1,1-trifluoropropan-2-yl]pyrimidine-5-sulfonamide] yielded a melting point of 214 to 218 °C. For the same molecule, the IC50 in data set [1] is under 500 nM.
Taken in the same sequence, the figures for `N#Cc1c(-c2ncc(S(=O)(=O)NC(CF)CF)cn2)n(C2CCCC2)c2cc(CC(F)F)ccc12` [compound 599, 2-[3-cyano-1-cyclopentyl-6-(2,2-difluoroethyl)-1H-indol-2-yl]-N-(1,3-difluoropropan-2-yl)pyrimidine-5-sulfonamide] were 174 to 210 °C and under 500 nM.
The molecule `Cc1ccc2c(C#N)c(-c3ncc(S(=O)(=O)N[C@@H](C)C(F)(F)F)cn3)n(CC3CC3)c2c1` [compound 402, 2-[3-cyano-1-(cyclopropylmethyl)-6-methyl-1H-indol-2-yl]-N-[(2S)-1,1,1-trifluoropropan-2-yl]pyrimidine-5-sulfonamide] came in with a melting point of 259 to 260 °C. The IC50 in data set [1] is under 500 nM.
Molecule `C[C@H](NS(=O)(=O)c1cnc(-c2c(C#N)c3ccc(OC(F)F)cc3n2C2CCC2)nc1)C(F)(F)F` [compound 323, 2-[3-cyano-1-cyclobutyl-6-(difluoromethoxy)-1H-indol-2-yl]-N-[(2S)-1,1,1-trifluoropropan-2-yl]pyrimidine-5-sulfonamide] registered a melting point of 221 to 223 °C. Besides, the IC50 in data set [1] is under 500 nM.
